Assays:
[1] = biological target: A isoform of the insulin receptor (IR-A) (Homo sapiens, UniProt P06213); assay: Affinity of the GluA8, TrpA13, ChaB24 analogue for receptor isoform A; assay type: binding
[2] = test system: Normal male Sprague-Dawley rats; assay: Hyperinsulinemic-euglycemic clamp; assay type: in vivo, rat
Description: A primed infusion of glucose was administered followed by a continuous dosage. […] Glucose appearance and disposal was determined by calculating the difference between glucose infused and glucose present in the plasma as determined by glucometer. Plasma levels of plasma nonesterified fatty acids (NEFA) are determined using a colorimeteric assay such as the assay kit available from Fujifilm Wako Diagnostics (Mountain View, Calif.). Phosphorylation relative to basal level was measured using Western blot analysis of samples harvested from liver, gastrocnemius and epididymal white adipose tissue (eWAT), and immunoblotted using anti-phosphotyrosine antibody (Cell Signaling Technologies, Inc., Danvers, Mass., Phospho-IGF-I Receptor β ([MUT]) Rabbit monoclonal antibody #3918). Similarly Akt phosphorylation was similarly tested using Cell Signaling Technology, Inc. (Danvers, Mass.) antibody No. 9271 as primary antibody and horse radish peroxidase (HRP)-linked Anti-rabbit IgG antibody No. 7074 (Cell Signaling Technology, Inc., Danvers, Mass.).

[3] = biological target: B isoform of the insulin receptor (IR-B) (Homo sapiens, UniProt P06213); assay: Affinity of the GluA8, TrpA13, ChaB24 analogue for receptor isoform B; assay type: binding

Substance: CHA: insulin analogue with Glu A8, Trp A13 and cyclohexanylalanine B24; SEQ ID NOS: 50 and 51
- lower affinity for the A isoform of the insulin receptor [1]: five
- increase of insulin stimulated whole body glucose disposal (Rd) ([2]; FIG. 16B): to a similar degree
- insulin stimulated whole body glucose disposal (Rd) ([2]; FIG. 16B legend): 21.1 ± 1.4 mg/kg/min
- insulin receptor tyrosine phosphorylation (IRKpY) in liver, vs KP ([2]; Western blot, FIG. 16D): decrease
- IRKpY activation in gastrocnemius muscle, vs KP ([2]; Western blot, FIG. 16E): to a similar degree
- IRKpY activation in epididymal white adipose tissue (eWAT), vs KP ([2]; Western blot, FIG. 16F): to a similar degree
- GINF (glucose infusion) ([2]; during clamp): 21.1 ± 1.4 mg/kg/min
- clamped plasma glucose concentration ([2]; during clamp, KP 24, CHA 40 pmol/kg-min): 111.1 ± 5.1 mg/dL
- suppression of endogenous glucose production (EGP) ([2]; hyperinsulinemic conditions, p=0.001): 28.2±16.7%
- 2-deoxyglucose uptake in eWAT ([2]; rat, in vivo): 0.72±0.1 mg glucose·kg tissue^−1·min^−1
- 2-deoxyglucose uptake in gastrocnemius ([2]; rat, in vivo): 18.6±2.5 mg glucose·kg tissue^−1·min^−1
- lower affinity for the B isoform of the insulin receptor [3]: 13 fold

From patent US10995129B2 (Case Western Reserve University, priority 2011, dated 2021)
